# Test results: patent US20260207637A1, “MODULATOR FOR PROMOTING BINDING OF BUTYROPHILIN 3A1/2A1” (priority 2023, published 2026)
# Where two headings read alike, the source gives them in different places.
# Tests used:
# MIApaca/FG2 cells = assay: EC50 assay of small molecule activated γδ T cells to kill MIApaca/FG2 tumor cells (3-fold dilution protocol); type: cell-based; conditions: 0.05-100 nM, read-out: MIApaca killing (EC50)
# Experimental: γδT cells and MIApaca/FG2 tumor cell lines were expanded and cultured in vitro. MIApaca/FG2 cells were digested, and the cells were counted and resuspended in DMEM complete medium, the density of the cell suspension was adjusted and added into a 96-well plate at 5×10^3 cells/100 […]/well for overnight incubation. On the next day, the test compound and the control compound were diluted at a 3-fold ratio with DMSO, and 4 μL of the diluted compound was added to 96 μL of culture medium for 25-fold dilution. 5 μL of 25-fold diluted compound was transferred to the corresponding well which had been plated with tumor cells, and the actual detection concentration was in the range of 0.05-100 nM. γδT cells were resuspended in γδT complete medium, and the density of the cell suspension was adjusted according to the effector-target ratio of E:T=2:1, and then the cell was added to the corresponding well at 1×10^4 cells/100 μL/well. After co-culture at 37° C., 5% CO2 for 20 hours, the cells were centrifuged. The supernatant was removed, and 50 μL of cell lysate containing fluorescein substrate was added to each well. After standing for 18 minutes in the dark, the signal of chemiluminescence was detected. The EC50 value was calculated by four-parameter fitting, with the corresponding signal value of the well with only tumor cells as the minimum killing value, and the corresponding value of the well without tumor cells as the maximum killing value. The killing data of MIApaca/FG2 cells is as follows: […]
# [1] = Stability experiment of compounds in human liver microsomes; type: in vitro ADME; conditions: NADPH, 37° C., read-out: T1/2 in human liver microsomes
# Experimental: Compounds were prepared as a 10 mM stock solution with DMSO and then diluted with 80% acetonitrile-water to a 100 μM working solution for later use. Human liver microsomes were obtained from BIOIVT.
# (1) The liver microsomes taken out from the refrigerator were placed in a 37° C. water bath thermostatic oscillator, pre-incubated for 5 min, and thawed for later use.
# (2) A certain amount of NADPH was weighed and added to an appropriate amount of magnesium chloride solution to dissolve into a 2 mM solution for later use.
# (3) A mixed solution of the warm incubation system (containing no β-NADPH) was prepared according to the proportions in the “composition of the experimental warm incubation system” above and dispensed at 165 μL/tubes (45 μL/tube for the negative control group and 120 μL/tube for the positive control group).
# (4) For the sample at 0 min: 200 μL of internal standard working precipitant was added and then 30 μL of NADPH solution was added.
# (5) For other samples: 135 μL NADPH solution was added to initiate the reaction (45 μL magnesium chloride solution was added for the negative control group), and incubated in a 37° C. water bath for 5, 15, 30, and 60 min (incubated in a 37° C. water bath for 60 min for the negative control group), then 60 μL was sampled and added to 200 µL of precipitant containing internal standard.
# (6) For the positive control group: 90 L NADPH solution was added to initiate the reaction, and incubated in a 37° C. water bath for 5, 15 min, then 60 μL was sampled and added to 200 μL of precipitant containing internal standard.
# (7) For neat sample: 297 μL of water was pipetted into a tube, 1000 μL of internal standard working solution was added, and 3 μL of test compound working solution was added.
# (8) All samples were vortexed and centrifuged.
# (9) 150 μL of the supernatant was sampled and added to 150 μL of water, mixed uniformly by vortex, and analyzed by LC-MS/MS. The half-life stability data of human liver microsomes is as follows: […]
# [2] = Binding rate test of compounds and human plasma protein (equilibrium dialysis); type: in vitro ADME; conditions: human plasma, equilibrium dialysis 6 hours, 37° C.
# Experimental: (1) The dry dialysis membrane was soaked with ultrapure water for 20 min or more than 20 min, then soaked with 20% ethanol for 30 min to 1 h, and the membrane was rinsed with ultrapure water 2-3 times. Finally, the membrane was soaked with ultrapure water for 20 minutes for later use.
# (2) The frozen plasma was thawed in a water bath at 37° C.
# (3) The test compound was diluted into plasma preheated to 37° C. at a final concentration of 1 μM, and the final concentration of the control compound warfarin in plasma was 2 μM.
# (4) The pre-treated dialysis membrane was assembled into the dialysis plate according to the specification of the product, and 120 μL of the receiving solution (100 mM phosphate buffer solution added 0.002% Tween 80) was added to one side of the permeable membrane in each dialysis well.
# (5) 20 μL of each of the final solutions of the test compound and the control compound were added into a 96-well sample plate in duplicate, and the TO sample was obtained, which was stored in a refrigerator at −20° C. Another 20 μL of the above final solution was added to the other side of the membrane in the dialysis device in duplicate, and incubated at 37° C. by shaking at constant temperature for 6 hours.
# (6) After 6 hours of incubation, 20 L of each of the dialyzed receiving solution and the administered plasma were weighed to obtain sample B and sample A in duplicate. The corresponding volume of corresponding blank plasma or receiving solution was added to sample B and sample A, respectively, so that the volume ratio of plasma to buffer in each sample well was 1:1. 300 μL of acetonitrile solution containing internal standard was added to all sample wells, and centrifuged after mixed uniformly.
# (7) 200 μL of ultrapure water (150 μL for the control group) was added into the corresponding sample wells of the 96-well sample plate, and 300 μL of the supernatant (150 μL for the control group) was added into the sample well; the samples were analyzed after mixed uniformly. The free percentage and recovery rate of the compound in plasma were calculated using the following formula: Plasma protein binding rate (%)=1−free percentage, wherein free percentage (%)=CB/CA
# wherein CB is the concentration of the compound in the receiving solution after equilibrium dialysis, CA is the concentration of the compound in the drug-dosed plasma after equilibrium dialysis, and CT0 is the initial concentration of the compound in plasma.
# [3] = γδT cells + MIApaca/FG2, E:T=2:1, co-culture 20 hours
# [4] = Homo sapiens, MIA PaCa-2, γδT cells + MIApaca/FG2, E:T=2:1, co-culture 20 hours
Structure (SMILES),EC50 (MIApaca/FG2 cells; [3]),half-life [1],"fraction unbound at 6 h, 1 μM [2]",EC50 (MIApaca/FG2 cells; [4])
"CC(C)OC(=O)[C@H](C)NP(=O)(CC/C=C(\F)CO)Oc1ccccc1 (stereo partly drawn) [Compound 23, Isopropyl (((Z)-4-fluoro-5-hydroxy-3-en-1-yl)(phenoxy)phosphoryl)-L-alaninate]",3.96 nM,,,
"C/C(=C\CCP(=O)(N[C@@H](C)C(=O)O[C@@H]1CCOC1)Oc1ccccc1)CO (stereo partly drawn) [Compound 7, (R)-Tetrahydrofuran-3-yl (((E)-5-hydroxy-4-methylpent-3-en-1-yl)(phenoxy)phosphoryl)-L-alaninate]",,21.6 min,0.222,
C/C(=C\CCP(=O)(N[C@@H](C)C(=O)OC1CCOCC1)Oc1ccccc1)CO (stereo partly drawn) [Compound 20],,24 min,0.227,0.48 nM
"C/C(=C\CCP(=O)(N[C@@H](C)C(=O)OC1(C#N)CCCC1)Oc1ccccc1)CO (stereo partly drawn) [Compound 36, 1-Cyanocyclopentyl (((E)-5-hydroxy-4-methylpent-3-en-1-yl)(phenoxy)phosphoryl)-L-alaninate]",,3.08 min,0.038,< 0.05 nM
"C/C(=C\CCP(=O)(N[C@@H](C)C(=O)OC1CC2(COC2)C1)Oc1ccccc1)CO (stereo partly drawn) [Compound 30, 2-Oxaspiro[3.3]heptan-6-yl (((E)-5-hydroxy-4-methylpent-3-en-1-yl)(phenoxy)phosphoryl)-L-alaninate]",,24.4 min,0.359,0.11 nM
CC(=O)N1CCC(OC(=O)[C@H](C)NP(=O)(CC/C=C(\C)CO)Oc2ccccc2)CC1 (stereo partly drawn) [Compound 29],1.63 nM,,,
"CC(C)OC(=O)[C@H](C)NP(=O)(CC/C=C(/CO)C(F)(F)F)Oc1ccccc1 (stereo partly drawn) [Compound 24, isopropyl (phenoxy((Z)-5,5,5-trifluoro-4-(hydroxymethyl)pent-3-en-1-yl)phosphoryl)-L-alaninate]",0.78 nM,,,
C/C(=C\CC(F)(F)P(=O)(N[C@@H](C)C(=O)OC1CCOCC1)Oc1ccccc1)CO (stereo partly drawn) [Compound 38],0.65 nM,,,
"C/C(=C\CCP(=O)(N[C@@H](C)C(=O)OCCO)Oc1ccccc1)CO (stereo partly drawn) [Compound 25, 2-Hydroxyethyl (((E)-5-hydroxy-4-methylpent-3-en-1-yl)(phenoxy)phosphoryl)-L-alaninate]",0.17 nM,,,
"C/C(=C\CC(F)(F)P(=O)(N[C@@H](C)C(=O)O[C@@H]1CCOC1)Oc1ccccc1)CO (stereo partly drawn) [Compound 37, (R)-tetrahydrofuran-3-yl (((E)-1,1-difluoro-5-hydroxy-4-methylpent-3-en-1-yl)(phenoxy)phosphoryl)-L-alaninate]",,8.11 min,0.098,0.2 nM
C/C(=C\CCP(=O)(N[C@@H](C)C(=O)O[C@@H]1CCOC1)Oc1ccc(C)cc1)CO (stereo partly drawn) [Compound 16],0.55 nM,,,
C/C(=C\CCP(=O)(N[C@@H](C)C(=O)O[C@@H]1CCO[C@H](C)C1)Oc1ccccc1)CO (stereo partly drawn) [Compound 33],,19.9 min,0.192,0.65 nM
C/C(=C\CCP(=O)(N[C@@H](C)C(=O)O[C@@H]1CCOC1)Oc1ccc(Cl)cc1)CO (stereo partly drawn) [Compound 15],0.2 nM,,,
"C[C@H](NP(=O)(CC/C=C(/CO)C(F)(F)F)Oc1ccccc1)C(=O)O[C@@H]1CCOC1 (stereo partly drawn) [Compound 27, (R)-tetrahydrofuran-3-yl (phenoxy((Z)-5,5,5-trifluoro-4-(hydroxymethyl)pent-3-en-1-yl)phosphoryl)-L-alaninate]",,10.5 min,0.193,0.23 nM
"C/C(=C\CC[P@@](=O)(N[C@@H](C)C(=O)O[C@@H]1CCOC1)Oc1ccccc1)CO (single isomer, unassigned) [Compound 18]",,20.9 min,0.178,0.2 nM
"C/C(=C\CCP(=O)(N[C@@H](C)C(=O)O[C@H]1C[C@@H](C)O[C@@H](C)C1)Oc1ccccc1)CO (stereo partly drawn) [Compound 34, (2R,4r,6S)-2,6-dimethyltetrahydro-2H-pyran-4-yl (((E)-5-hydroxy-4-methylpent-3-en-1-yl)(phenoxy)phosphoryl)-L-alaninate]",1.03 nM,,,
"C/C(=C\CCP(=O)(N[C@@H](C)C(=O)O[C@H]1CO[C@H]2OCC[C@H]21)Oc1ccccc1)CO (stereo partly drawn) [Compound 32, (3R,3aS,6aR)-hexahydrofuran[2,3-b]furan-3-yl (((E)-5-hydroxy-4-methylpent-3-en-1-yl)(phenoxy)phosphoryl)-L-alaninate]",,11.4 min,0.214,0.21 nM
"C/C(=C\CCP(=O)(NC(C)(C)C(=O)O[C@@H]1CCOC1)Oc1ccccc1)CO (stereo partly drawn) [Compound 26, (R)-tetrahydrofuran-3-yl 2-((((E)-5-hydroxy-4-methylpent-3-en-1-yl)(phenoxy)phosphoryl)amino)-2-methylpropanoate]",0.1 nM,,,
"C/C(=C\CCP(=O)(N[C@@H](C)C(=O)OC1CCS(=O)(=O)CC1)Oc1ccccc1)CO (stereo partly drawn) [Compound 28, 1,1-Dioxotetrahydro-2H-thiopyran-4-yl (((E)-5-hydroxy-4-methylpent-3-en-1-yl)(phenoxy)phosphoryl)-L-alaninate]",0.88 nM,,,
C/C(=C\CCP(=O)(N[C@@H](C)C(=O)O[C@@H]1CCOC1)Oc1cccc2ccccc12)CO (stereo partly drawn) [Compound 17],0.12 nM,,,
C/C(=C\CCP(=O)(N[C@@H](C)C(=O)OC1CCN(CC(F)(F)F)CC1)Oc1ccccc1)CO (stereo partly drawn) [Compound 31],,3.91 min,0.129,0.13 nM
"C/C(=C\CCP(=O)(N[C@@H](C)C(=O)O[C@@H]1CCNC(=O)C1)Oc1ccccc1)CO (stereo partly drawn) [Compound 35, (R)-2-piperidone-4-yl (((E)-5-hydroxy-4-methylpent-3-en-1-yl)(phenoxy)phosphoryl)-L-alaninate]",,82.5 min,0.429,2.15 nM
"C/C(=C\CCP(=O)(N[C@@H](C)C(=O)O[C@H]1CCOC1)Oc1ccccc1)CO (stereo partly drawn) [Compound 8, (S)-tetrahydrofuran-3-yl (((E)-5-hydroxy-4-methylpent-3-en-1-yl)(phenoxy)phosphoryl)-L-alaninate]",,27.3 min,0.168,
